From patent US9556201B2, “Bicyclic pyridines and analogs as sirtuin modulators” (GLAXOSMITHKLINE LLC, priority 2009, dated 2017) come the findings set out here.

The target of assay [1] is T1, SIRT1 (Homo sapiens, UniProt Q96EB6).
T1 sequence (Q96EB6 1-747): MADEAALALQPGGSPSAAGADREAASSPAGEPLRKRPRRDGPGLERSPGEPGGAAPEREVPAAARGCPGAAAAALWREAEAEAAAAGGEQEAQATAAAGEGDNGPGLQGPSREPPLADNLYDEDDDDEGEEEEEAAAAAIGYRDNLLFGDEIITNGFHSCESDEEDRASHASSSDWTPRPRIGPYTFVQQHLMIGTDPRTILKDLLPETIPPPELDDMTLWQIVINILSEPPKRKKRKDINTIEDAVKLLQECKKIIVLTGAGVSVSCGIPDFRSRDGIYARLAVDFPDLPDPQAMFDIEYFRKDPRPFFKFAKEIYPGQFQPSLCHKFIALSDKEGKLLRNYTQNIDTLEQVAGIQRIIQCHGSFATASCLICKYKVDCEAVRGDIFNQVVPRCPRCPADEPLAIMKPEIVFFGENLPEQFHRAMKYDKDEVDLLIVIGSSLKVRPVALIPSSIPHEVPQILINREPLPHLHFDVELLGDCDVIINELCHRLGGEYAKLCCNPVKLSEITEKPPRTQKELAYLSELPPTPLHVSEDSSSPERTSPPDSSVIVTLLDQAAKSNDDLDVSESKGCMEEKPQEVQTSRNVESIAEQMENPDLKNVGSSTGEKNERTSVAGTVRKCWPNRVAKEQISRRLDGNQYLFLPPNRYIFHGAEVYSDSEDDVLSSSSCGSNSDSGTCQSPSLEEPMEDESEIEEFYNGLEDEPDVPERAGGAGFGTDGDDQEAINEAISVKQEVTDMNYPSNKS
The assay is described as follows: Mass spectrometry based assay to identify modulators of SIRT1 activity (deacetylation of p53-based acetylated peptide substrate). It is filed as biochemical. As to conditions: SIRT1 activation; for Emax: 25 min, read-out: % FOLD ACT. (percent maximum fold activation). An outline of the steps:
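His-tagged human SIRT1 (10 nM, E. coli) incubated 25 min at 25 °C with […] p53-derived acetylated 5TMR peptide and 120 μM βNAD+ in pH 8 Tris-acetate buffer, then formic acid-stopped. Mass spectrometry quantifies acetylated vs deacetylated peptide; nicotinamide and DMSO controls.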

The subject of assay [2] is TNF. The experiment in a line: TNF IC50 (column of Table 1; method not shown). Format: cell-based.

pIC50: −log10 of the molar value. A value given as a limit tells only on which side of the number the result lay.

The pIC50 is the negative decadic logarithm of the IC50, by convention in mol/L. A lower pIC50 goes with a large IC50. Consider `O=C(Nc1ccncc1)N1CCOc2ccc(-c3cccc(C(F)(F)F)c3)nc21` [Compound 501], for which, in assay [1], the Emax was over 200% and the EC1.5 result is “A (EC1.5<1.0 μM)”. Besides, the negative-log IC50 (pIC50) in assay [2] is over 4.70.
For the compound `CN1CCN(C(=O)Nc2cccc(CN3CCOCC3)n2)c2nc(-c3cccc(C(F)(F)F)c3)ccc21` [Compound 539], in assay [1], the Emax was over 200% and the EC1.5 entry is recorded as “A (EC1.5<1.0 μM)”. For the same compound, the pIC50 in assay [2] is over 4.70.
Regarding `Cc1cncc(NC(=O)N2CCOc3ccc(-c4cccc(N5CCCC5)c4)nc32)c1` [Compound 644], in assay [1], the Emax is over 200% and the EC1.5 result is recorded as “A (EC1.5<1.0 μM)”. Also, the pIC50 in assay [2] was over 4.70.
With `O=C(Nc1ccnc(N2CCC2)c1)N1CCCc2ccc(-c3cccc(Cl)c3)nc21` [Compound 617], in assay [1], the Emax is over 200% and the EC1.5 result was “A (EC1.5<1.0 μM)”. The compound also showed a negative logarithm of the IC50 (pIC50) in assay [2] of over 4.70.
The matching figures for `Cc1cc(-c2cccc(Cl)c2)nc2c1OCCN2C(=O)Nc1ccnc(N2CCC2)c1` [Compound 692]: over 200%, “A (EC1.5<1.0 μM)” and at most 4.70.
Take `O=C(Nc1ccc(F)cn1)N1CCOc2ccc(-c3cccc(C(F)(F)F)c3)nc21` [Compound 566]: in assay [1], the Emax is over 200% and the EC1.5 entry was “A (EC1.5<1.0 μM)”. The compound also showed a pIC50 in assay [2] of at most 4.70.
As for `Cc1cc(NC(=O)N2CCCOc3ccc(-c4cccc(N5CCCC5)c4)nc32)cc(C)n1` [Compound 615], in assay [1], the Emax was over 200% and the EC1.5 result is “A (EC1.5<1.0 μM)”. Further, the pIC50 in assay [2] is over 4.70.
`Cc1cc(NC(=O)N2CCOc3ccc(-c4cccc(C(F)(F)F)c4)nc32)ccn1` [Compound 548]: in assay [1], the Emax was over 200% and the EC1.5 entry is “A (EC1.5<1.0 μM)”. In assay [2], this compound gave a negative logarithm of the IC50 (pIC50) of at most 4.70.
Taken in the same sequence, the figures for `O=C(Nc1ccccn1)N1CCOc2ccc(-c3cccc(C(F)(F)F)c3)nc21` [Compound 502] were over 200%, “A (EC1.5<1.0 μM)” and at most 4.70.
For `O=C(Nc1cncc(OCC(O)CO)n1)N1CCCc2ccc(-c3cccc(C(F)(F)F)c3)nc21` (centres unmarked) [Compound 638], in assay [1], the Emax was over 200% and the EC1.5 result is on record as “A (EC1.5<1.0 μM)”. The same compound gave a pIC50 in assay [2] of over 4.70.
In the case of `Cc1cc(C)nc(NC(=O)N2CCN(C)c3ccc(-c4cccc(C(F)(F)F)c4)nc32)c1` [Compound 534], in assay [1], the Emax is at most 200% and the EC1.5 entry is reported as “A (EC1.5<1.0 μM)”. In assay [2], the negative logarithm of the IC50 (pIC50) was at most 4.70.
The matching figures for `O=C(Nc1cccc(OC[C@H](O)CO)n1)N1CCOc2ccc(-c3ccc4c(c3)CCO4)nc21` [Compound 695]: over 200%, “A (EC1.5<1.0 μM)” and over 4.70.
`Cc1cncc(NC(=O)N2CC(C)(C)Oc3ccc(-c4cccc(F)c4)nc32)c1` [Compound 591]: in assay [1], the Emax was over 200% and the EC1.5 entry is recorded as “A (EC1.5<1.0 μM)”. The same compound had a negative logarithm of the IC50 (pIC50) in assay [2] of over 4.70.
On to `Cc1cc(NC(=O)N2CC(C)(C)Oc3ccc(-c4cccc(N5CCCC5)c4)nc32)cc(C)n1` [Compound 605], for which, in assay [1], the Emax was over 200% and the EC1.5 result is given as “A (EC1.5<1.0 μM)”. For the same compound, the negative logarithm of the IC50 (pIC50) in assay [2] was at most 4.70.
On to `Cc1cc(NC(=O)N2CC(C)(C)Oc3ccc(-c4cccc(N5CC[C@H](F)C5)c4)nc32)cc(C)n1` [Compound 658], for which, in assay [1], the Emax is over 200% and the EC1.5 entry is reported as “A (EC1.5<1.0 μM)”. In assay [2], this compound had a pIC50 of at most 4.70.
For `Cc1cc(NC(=O)N2CCCOc3ccc(-c4cccc(Cl)c4)nc32)cc(C)n1` [Compound 626], in assay [1], the Emax is over 200% and the EC1.5 result was “A (EC1.5<1.0 μM)”. In addition, in assay [2], the negative logarithm of the IC50 (pIC50) is over 4.70.
Turning to `CC1(C)CN(C(=O)Nc2ccncc2)c2nc(-c3cccc(C(F)(F)F)c3)ccc2O1` [Compound 560, 2,2-dimethyl-N-(pyridin-4-yl)-6-(3-(trifluoromethyl)phenyl)-2H-pyrido[3,2-b][1,4]oxazine-4(3H)-carboxamide], in assay [1], the Emax is over 200% and the EC1.5 entry is on record as “A (EC1.5<1.0 μM)”. The compound also gave a negative logarithm of the IC50 (pIC50) in assay [2] of at most 4.70.
In the case of `O=C(Nc1cncc(F)c1)N1CCCc2ccc(-c3cccc(F)c3)nc21` [Compound 594], the EC1.5 result in assay [1] was “A (EC1.5<1.0 μM)”. The pIC50 in assay [2] is at most 4.70.
As to `Cc1csc(NC(=O)N2CC(C)(C)Oc3ccc(-c4cccc(N(C)C)c4)nc32)n1` [Compound 624], in assay [1], the Emax is over 200% and the EC1.5 result was “A (EC1.5<1.0 μM)”. For the same compound, the pIC50 in assay [2] was over 4.70.
With `O=C(Nc1ccncc1)N1CCOc2ccc(-c3cccc(N4CCOCC4)c3)nc21` [Compound 557], in assay [1], the Emax is over 200% and the EC1.5 entry is given as “A (EC1.5<1.0 μM)”. Further, the pIC50 in assay [2] is at most 4.70.
In the case of `CN(C)c1cccc(-c2ccc3c(n2)N(C(=O)Nc2cncc(F)c2)CC(C)(C)O3)c1` [Compound 623], in assay [1], the Emax is over 200% and the EC1.5 result was “A (EC1.5<1.0 μM)”. In assay [2], this compound gave a pIC50 of at most 4.70.
In the case of `O=C(Nc1ccncc1)N1CCCc2ccc(-c3cccc(C(F)(F)F)c3)nc21` [Compound 645], in assay [1], the Emax was over 200% and the EC1.5 result is recorded as “A (EC1.5<1.0 μM)”. In assay [2], this compound showed a pIC50 of over 4.70.
Regarding `O=C(Nc1cccc(OC[C@@H](O)CO)n1)N1CCOc2ccc(-c3cccc(C(F)(F)F)c3)nc21` [Compound 571], in assay [1], the Emax is over 200% and the EC1.5 result was “A (EC1.5<1.0 μM)”. In addition, the pIC50 in assay [2] is over 4.70.
On to `Cc1cc(NC(=O)N2CCOc3ccc(-c4cccc(N5CCCC5)c4)nc32)cc(C)n1` [Compound 618], for which, in assay [1], the Emax was over 200% and the EC1.5 result is recorded as “A (EC1.5<1.0 μM)”. The same compound had a pIC50 in assay [2] of at most 4.70.
The matching figures for `Cc1cc(C)nc(NC(=O)N2CCCc3ccc(-c4cccc(Cl)c4)nc32)c1` [Compound 654]: over 200%, “A (EC1.5<1.0 μM)” and at most 4.70.
On to `CC1(C)CN(C(=O)Nc2cncc(F)c2)c2nc(-c3cccc(N4CC[C@H](F)C4)c3)ccc2O1` [Compound 661], for which, in assay [1], the Emax was over 200% and the EC1.5 result is reported as “A (EC1.5<1.0 μM)”. The compound further gave a pIC50 in assay [2] of at most 4.70.
On to `O=C(Nc1ccnc(N2CCC2)c1)N1CCCc2ccc(-c3cccc(C(F)(F)F)c3)nc21` [Compound 589], for which, in assay [1], the Emax is over 200% and the EC1.5 result is reported as “A (EC1.5<1.0 μM)”. For the same compound, the negative logarithm of the IC50 (pIC50) in assay [2] was over 4.70.
For the compound `Cc1cncc(NC(=O)N2CCOc3ccc(-c4cccc(C(F)(F)F)c4)nc32)c1` [Compound 551], in assay [1], the Emax was over 200% and the EC1.5 entry is reported as “A (EC1.5<1.0 μM)”. In addition, the negative-log IC50 (pIC50) in assay [2] was at most 4.70.
Regarding `Cc1cncc(NC(=O)N2CC(C)(C)Oc3ccc(-c4cccc(Cl)c4)nc32)c1` [Compound 600], in assay [1], the Emax was over 200% and the EC1.5 entry is “A (EC1.5<1.0 μM)”. This compound also gave a negative logarithm of the IC50 (pIC50) in assay [2] of over 4.70.
The matching figures for `Cc1cncc(NC(=O)N2CCCc3ccc(-c4cccc(F)c4)nc32)c1` [Compound 590]: over 200%, “A (EC1.5<1.0 μM)” and over 4.70.
As to `CN1CCN(C(=O)Nc2ccnc(N3CCC3)c2)c2nc(-c3cccc(C(F)(F)F)c3)ccc21` [Compound 538], in assay [1], the Emax was over 200% and the EC1.5 entry is given as “A (EC1.5<1.0 μM)”. The compound also had a pIC50 in assay [2] of over 4.70.
For the compound `Cc1csc(NC(=O)N2CCN(C)c3ccc(-c4cccc(C(F)(F)F)c4)nc32)n1` [Compound 533], in assay [1], the Emax is over 200% and the EC1.5 entry is reported as “A (EC1.5<1.0 μM)”. The compound also gave a pIC50 in assay [2] of at most 4.70.
The matching figures for `Cc1cc(NC(=O)N2CCOc3ccc(-c4cccc(C#N)c4)nc32)cc(C)n1` [Compound 631]: over 200%, “A (EC1.5<1.0 μM)” and at most 4.70.
`O=C(Nc1ccnc(OCC(O)CO)n1)N1CCCc2ccc(-c3cccc(C(F)(F)F)c3)nc21` (centres unmarked) [Compound 639]: in assay [1], the Emax is over 200% and the EC1.5 entry is recorded as “A (EC1.5<1.0 μM)”. In assay [2], this compound showed a negative logarithm of the IC50 (pIC50) of over 4.70.
In the case of `O=C(Nc1ccnc(N2CCC2)c1)N1CCOc2ccc(-c3cccc(F)c3)nc21` [Compound 519], in assay [1], the Emax was over 200% and the EC1.5 result is on record as “A (EC1.5<1.0 μM)”. In addition, the pIC50 in assay [2] was over 4.70.
For the compound `Cc1cc(NC(=O)N2CCOc3c(C)cc(-c4cccc(Cl)c4)nc32)cc(C)n1` [Compound 689], in assay [1], the Emax was over 200% and the EC1.5 result is “A (EC1.5<1.0 μM)”. In assay [2], this compound showed a pIC50 of at most 4.70.
As for `Cc1csc(NC(=O)N2CCCOc3ccc(-c4cccc(C(F)(F)F)c4)nc32)n1` [Compound 578], in assay [1], the Emax was over 200% and the EC1.5 entry is on record as “A (EC1.5<1.0 μM)”. The compound also showed a negative-log IC50 (pIC50) in assay [2] of at most 4.70.
